Source: US11001561B2, “Pyrimidinone derivatives as SHP2 antagonists” (MERCK PATENT GMBH, priority 2019, dated 2021)
Like-named read-outs stand apart in the source and are kept apart here.

Legend:
[1] = target: Full length SHP2 protein (Recombinant Human SHP-2) (Homo sapiens (Human), UniProt Q06124); test: SHP2 biochemical assay (DiFMUP substrate, activating peptide IRSI_2pY); conditions: activating peptide IRSI_2pY 140 nM, DiFMUP, 60 min
Protocol: The inhibition of SHP2 by compounds of the invention was monitored using the surrogate substrate DiFMUP after protein activation by a peptide bearing two appropriately spaced phosphotyrosine. […] The generation of the DiFMU product by activated SHP2 was monitored through Fluorescence measurement with a PerkinElmer Envision reader. The inhibitor dose response curves were analyzed with Genedata Screener.

pERK1/2 in KYSE520 cells = test: p-Erk cellular assay in KYSE520 (Mesoscale); assay type: cell-based; conditions: read-out: pERK1/2 in Cell KYSE520 IC50
Protocol: p-Erk Cellular Assay in KYSE520: The effect of SHP2 inhibitors on pERK level was assessed using phospho-specific antibody using Mesoscale quantification platform. For measuring change in pERK levels using mesoscale, 30,000 cells of KYSE520 cells were plated in 96-well tissue culture treated plate in 175 μl volume of media. After an overnight incubation at 37° C., various SHP2 inhibitors were added in different concentration to each well maintaining duplicate wells across plates and incubated with compounds for 2 h at 37° C. followed by a wash with ice cold PBS buffer. The cells were then lysed in lysis buffer and processed and analyzed for p-ERK/ERK as per manufacturer's instructions (Mesoscale discovery, cat No. […]-3).

[2] = read-out: SHP-2 biochemical assay IC50
[3] = SHP-2 biochemical assay IC50 (μM)

Full length SHP2 protein (Recombinant Human SHP-2), sequence (Q06124 2-593): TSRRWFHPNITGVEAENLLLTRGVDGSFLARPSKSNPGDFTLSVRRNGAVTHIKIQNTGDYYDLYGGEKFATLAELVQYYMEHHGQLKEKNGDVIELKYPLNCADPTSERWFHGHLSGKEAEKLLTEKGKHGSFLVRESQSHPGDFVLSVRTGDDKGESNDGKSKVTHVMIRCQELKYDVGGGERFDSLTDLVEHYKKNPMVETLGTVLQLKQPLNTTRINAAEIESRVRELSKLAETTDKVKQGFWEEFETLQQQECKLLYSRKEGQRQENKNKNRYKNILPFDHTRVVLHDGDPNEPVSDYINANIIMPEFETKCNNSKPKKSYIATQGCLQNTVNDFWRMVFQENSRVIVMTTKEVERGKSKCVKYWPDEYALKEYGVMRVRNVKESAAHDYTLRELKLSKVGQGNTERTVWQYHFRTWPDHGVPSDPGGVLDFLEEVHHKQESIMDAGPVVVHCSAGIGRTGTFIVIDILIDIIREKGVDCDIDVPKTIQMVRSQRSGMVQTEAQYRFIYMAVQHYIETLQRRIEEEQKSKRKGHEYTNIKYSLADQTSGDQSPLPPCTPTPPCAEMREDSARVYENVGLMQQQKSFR

| SMILES | IC50 [1, 2] [µM] | IC50 (pERK1/2 in KYSE520 cells; Homo sapiens, KYSE-520, 2 h) [nM] | other results |
| --- | --- | --- | --- |
| Cc1c(N2CCC3(CC2)C[C@H](C)C[C@H]3N)nc(C)n(-c2cccc(Cl)c2Cl)c1=O (atropisomer, axis not shown) [Compound 111a, (3M)-6-[(1R,3S)-1-amino-3-methyl-8-azaspiro[4.5]decan-8-yl]-3-(2,3-dichlorophenyl)-2,5-dimethyl-3,4-dihydropyrimidin-4-one] | 0.093 | 720 | – |
| Cc1nc(N2CCC(C)(N)CC2)cc(=O)n1-c1cccc(Cl)c1Cl [Compound 2, 6-(4-amino-4-methylpiperidin-1-yl)-3-(2,3-dichlorophenyl)-2-methyl-3,4-dihydropyrimidin-4-one] | – | 5570 | – |
| Cc1nc(N2CCC(C)(N)CC2)cc(=O)n1-c1cccc(Cl)c1Cl (single isomer, unassigned) [Compound 2b, (3M)-6-(4-amino-4-methylpiperidin-1-yl)-3-(2,3-dichlorophenyl)-2-methyl-3,4-dihydropyrimidin-4-one] | – | 4250 | – |
| C[C@@H]1OCC2(CCN(c3cc(=O)n(-c4cccc(Cl)c4Cl)c(N)n3)CC2)[C@@H]1N [Compound 5, 2-amino-6-[(3S,4S)-4-amino-3-methyl-2-oxa-8-azaspiro[4.5]decan-8-yl]-3-(2,3-dichlorophenyl)-3,4-dihydropyrimidin-4-one] | 0.76 | 14500 | – |
| Cc1c(N2CCC3(CC2)CO[C@@H](C)[C@H]3N)nc(C)n(-c2cccc(Cl)c2Br)c1=O [Compound 97, 6-((3S,4S)-4-Amino-3-methyl-2-oxa-8-aza-spiro[4.5]dec-8-yl)-3-(2-bromo-3-chloro-phenyl)-2,5-dimethyl-3H-pyrimidin-4-one] | 0.078 | 1300 | – |
| Cc1c(N2CCC3(CC2)CO[C@@H](C)[C@H]3N)nc(C)n(-c2ccc(F)c(Cl)c2Cl)c1=O [Compound 99, 6-((3S,4S)-4-Amino-3-methyl-2-oxa-8-aza-spiro[4.5]dec-8-yl)-3-(2,3-dichloro-4-fluoro-phenyl)-2,5-dimethyl-3H-pyrimidin-4-one] | 0.028 | 955 | – |
| Cc1nc(N2CCC(N)(CO)CC2)cc(=O)n1-c1cccc(Cl)c1Cl [Compound 29, 6-[4-amino-4-(hydroxymethyl)piperidin-1-yl]-3-(2,3-dichlorophenyl)-2-methyl-3,4-dihydropyrimidin-4-one] | 0.51 | 2780 | – |
| Cc1c(N2CCC(C)(CN)CC2)nc(C)n(-c2cccc(Cl)c2Cl)c1=O [Compound 18, 6-[4-(aminomethyl)-4-methylpiperidin-1-yl]-3-(2,3-dichlorophenyl)-2,5-dimethyl-3,4-dihydropyrimidin-4-one] | 0.37 | 1320 | – |
| [2H]C([2H])([2H])c1c(N2CCC3(CC2)CO[C@@H](C)[C@H]3N)nc(C)n(-c2cccc(Cl)c2Cl)c1=O [Compound 63, 6-[(3S,4S)-4-amino-3-methyl-2-oxa-8-azaspiro[4.5]decan-8-yl]-3-(2,3-dichlorophenyl)-5-(^2H3)methyl-2-methyl-3,4-dihydropyrimidin-4-one] | – | – | IC50 [1, 3]: 0.039 µM; IC50 (pERK1/2 in KYSE520 cells; 2 h): 467 nM |
| Cc1c(N2CCC3(CC2)Oc2cnccc2[C@H]3N)nc(C)n(-c2cccc(Cl)c2Cl)c1=O (single isomer, unassigned) [Compound 80a] | – | > 10000 | IC50 [1, 3]: 1.4 µM |
| Cc1nc(N2CCC3(CC2)CO[C@@H](C)[C@H]3N)nc(=O)n1-c1cccc(Cl)c1Cl (single isomer, unassigned) [Compound 37a] | 1.1 | 11300 | – |
| Cc1c(N2CCC3(CC2)Cc2ccccc2[C@H]3N)nc(C)n(-c2cccc(Br)c2Cl)c1=O [Compound 104, 6-[(1S)-1-amino-1,3-dihydrospiro[indene-2,4′-piperidin]-1′-yl]-3-(3-bromo-2-chlorophenyl)-2,5-dimethyl-3,4-dihydropyrimidin-4-one] | 0.005 | 26 | – |
| Cc1c(N2CCC3(CC2)Cc2ccccc2[C@H]3N)nc(C)n(-c2cccc(C#N)c2Cl)c1=O [Compound 108, 3-4-[(1S)-1-amino-1,3-dihydrospiro[indene-2,4′-piperidin]-1′-yl]-2,5-dimethyl-6-oxo-1,6-dihydropyrimidin-1-yl-2-chlorobenzonitrile] | – | 32 | IC50 [1, 3]: 0.007 µM |
| Cc1c(N2CCC3(CC2)c2ncccc2C[C@H]3N)nc(C)n(-c2cccc(Cl)c2Cl)c1=O [Compound 75, (3M)-6-[(6R)-6-amino-5,6-dihydrospiro[cyclopenta[b]pyridine-7,4′-piperidin]-1′-yl]-3-(2,3-dichlorophenyl)-2,5-dimethyl-3,4-dihydropyrimidin-4-one] | – | – | IC50 (pERK1/2 in KYSE520 cells; 2 h): 824 nM |
| Cc1nc(N2CC[C@@H](N)[C@@H](O)C2)cc(=O)n1-c1cccc(Cl)c1Cl (racemic) [Compound 30, (+/−)-6-[(3S,4R)-4-amino-3-hydroxypiperidin-1-yl]-3-(2,3-dichlorophenyl)-2-methyl-3,4-dihydropyrimidin-4-one] | – | – | IC50 [1, 3]: 13 µM |
| Cc1nc(N2C[C@@H]3CCC[C@]3(CN)C2)c(C(F)(F)F)c(=O)n1-c1cccc(Cl)c1Cl (racemic) [Compound 25, (+/−)-6-[(3aS,6aR)-3a-(aminomethyl)-octahydrocyclopenta[c]pyrrol-2-yl]-3-(2,3-dichlorophenyl)-2-methyl-5-(trifluoromethyl)-3,4-dihydropyrimidin-4-one] | – | – | IC50 [1, 3]: 14 µM |

| SMILES | IC50 [1, 2] [µM] | IC50 (pERK1/2 in KYSE520 cells; Homo sapiens, KYSE-520, 2 h) [nM] | other results |
| --- | --- | --- | --- |
| Cc1nc(N2CCC(NC[C@H](O)CO)CC2)cc(=O)n1-c1cccc(Cl)c1Cl [Compound 42, 3-(2,3-dichlorophenyl)-6-(4-{[(2S)-2,3-dihydroxypropyl]amino}-piperidin-1-yl)-2-methyl-3,4-dihydropyrimidin-4-one] | 4.3 | – | – |
| Cc1nc(N2CCC3(CC2)CO[C@@H](C)[C@H]3N)c(C(C)C)c(=O)n1-c1cccc(Cl)c1Cl (atropisomer, axis not shown) [Compound 49a, (3P)-6-[(3S,4S)-4-amino-3-methyl-2-oxa-8-azaspiro[4.5]decan-8-yl]-3-(2,3-dichlorophenyl)-2-methyl-5-(propan-2-yl)-3,4-dihydropyrimidin-4-one] | > 10 | – | – |
| COc1ccc(-n2c(C)nc(N3CCC4(CC3)CO[C@@H](C)[C@H]4N)c(C)c2=O)c(Cl)c1Cl [Compound 98, 6-((3S,4S)-4-Amino-3-methyl-2-oxa-8-aza-spiro[4.5]dec-8-yl)-3-(2,3-dichloro-4-methoxy-phenyl)-2,5-dimethyl-3H-pyrimidin-4-one] | 0.5 | – | – |
| CCc1c(N2CCC3(CC2)CO[C@@H](C)[C@H]3N)nc(C)n(-c2cccc(Cl)c2Cl)c1=O [Compound 36, 6-[(3S,4S)-4-amino-3-methyl-2-oxa-8-azaspiro[4.5]decan-8-yl]-3-(2,3-dichlorophenyl)-5-ethyl-2-methyl-3,4-dihydropyrimidin-4-one] | 5 | – | – |
| Cc1c(N2CCC3(CC2)Oc2cnccc2C3N)nc(C)n(-c2cccc(Cl)c2Cl)c1=O (single isomer, unassigned) [Compound 80c] | 0.005 | – | – |
| Cc1c(N2CCC3(CC2)Cc2ccccc2[C@@H]3N)nc(C)n(-c2cccc(Cl)c2Cl)c1=O (atropisomer, axis not shown) [Compound 74d, (3P)-6-[(1R)-1-amino-1,3-dihydrospiro[indene-2,4′-piperidin]-1′-yl]-3-(2,3-dichlorophenyl)-2,5-dimethyl-3,4-dihydropyrimidin-4-one] | – | – | IC50 [1, 3]: > 10 µM |
| CC1(N)CCN(c2cc(=O)n(-c3cccc(Cl)c3Cl)c(C(F)F)n2)CC1 [Compound 11, 6-(4-amino-4-methylpiperidin-1-yl)-3-(2,3-dichlorophenyl)-2-(difluoromethyl)-3,4-dihydropyrimidin-4-one] | 3.8 | – | – |
| Cc1nc(N2CC3CCCC3(CN)C2)cc(=O)n1-c1cccc(Cl)c1Cl (stereo not drawn) [Compound 14, 6-[3a-(aminomethyl)-octahydrocyclopenta[c]pyrrol-2-yl]-3-(2,3-dichlorophenyl)-2-methyl-3,4-dihydropyrimidin-4-one] | 6.6 | – | – |
| Cc1c(N2CCC3(CC2)CC3N)nc(C)n(-c2cccc(Cl)c2Cl)c1=O (stereo not drawn) [Compound 89, 6-1-amino-6-azaspiro[2.5]octan-6-yl-3-(2,3-dichlorophenyl)-2,5-dimethyl-3,4-dihydropyrimidin-4-one] | 1.3 | – | – |
| Cc1nc(N2C[C@H]3COCC[C@@]3(CN)C2)cc(=O)n1-c1cccc(Cl)c1Cl (racemic) [Compound 19, (+/−)-6-[(3aS,7aR)-7a-(aminomethyl)-octahydropyrano[3,4-c]pyrrol-2-yl]-3-(2,3-dichlorophenyl)-2-methyl-3,4-dihydropyrimidin-4-one] | 4 | – | – |
| Cc1c(N2CCC3(CCC[C@@H]3N)CC2)nc(N)n(-c2cccc(Cl)c2Cl)c1=O (single isomer, unassigned) [Compound 78a] | > 50 | – | – |
| Cc1c(N2CCC(C)(N)CC2)ncn(-c2cccc(Cl)c2Cl)c1=O [Compound 70, 6-(4-Amino-4-methyl-piperidin-1-yl)-3-(2,3-dichloro-phenyl)-5-methyl-3H-pyrimidin-4-one] | > 10 | – | – |
| Cc1nc(N2CCC3(CC2)CO[C@@H](C)[C@H]3N)nc(=O)n1-c1cccc(Cl)c1Cl (single isomer, unassigned) [Compound 37b] | – | – | IC50 [1, 3]: > 10 µM |
| Cc1c(N2CCC(CN)(CO)CC2)nc(C)n(-c2cccc(Cl)c2Cl)c1=O [Compound 88, 6-[4-(aminomethyl)-4-(hydroxymethyl)piperidin-1-yl]-3-(2,3-dichlorophenyl)-2,5-dimethyl-3,4-dihydropyrimidin-4-one] | 0.59 | – | – |
| Cc1c(N2CCC(C)(N)CC2)nc(C)n(-c2ccc3nccnc3c2)c1=O [Compound 47, 6-(4-Amino-4-methyl-piperidin-1-yl)-2,5-dimethyl-3-quinoxalin-6-yl-3H-pyrimidin-4-one] | > 10 | – | – |
